Test results: patent publication US20240002351A1, “QUINAZOLIN-4-ONE AND THIENO[2,3-D]PYRIMIDIN-4-ONE INHIBITORS OF ERBB4 (HER4) FOR USE IN THE TREATMENT OF CANCER” (UNIVERSITEIT ANTWERPEN, priority 2021, published 2024)

Experiments:
[1] = tested on: Human atrial cardiac fibroblasts (HCF); assay: In vitro fibrosis assay, TGFβ-stimulated HCF (qRT-PCR); format: cell-based; conditions: TGFβ 10 ng/mL, 24 hours (FIG. 9)
Method: (§1) Human dermal fibroblasts (HDF, Cell applications, 106-05A) were cultured in Dulbecco's modified Eagle's medium (DMEM, ThermoFisher Scientific, 11995065) supplemented with 10% (v/v) heat-inactivated fetal bovine serum (FBS, ThermoFisher Scientific, 10082147), 1% penicillin/streptomycin and 1 mL polymyxin B and were maintained at 37° C. in humidified atmosphere of 5% CO2 in air. Human atrial cardiac fibroblasts (HCF, Innoprot, P10454) were cultured in fibroblast medium (Innoprot, P60108) supplemented with fetal bovine serum, fibroblast growth supplement and penicillin/streptomycin and were maintained at 37° C. in humidified atmosphere of 5% CO2 in air.
Following 1-9 passages, HDF and HCF were seeded at 0.3×10^6 cells/well in 1 mL cell medium in 12-well plates and incubated overnight at 37° C. in humidified atmosphere of 5% CO2 in air. Next, cells were put on serum starved medium (0.1% FBS) for 8 hours and then stimulated for 24 hours with either PBS, active compound (4-32 μM) or non-active compound (NA1, NA2; 4-32 μM) on top of TGFβ (10 ng/mL, Peprotech, 100-21). […] Next, cells were lysed using 100 μL lysis buffer RA1 (of RNA isolation kit below) supplemented with β-mercapto-ethanol (100:1), scraped with a cell scraper and transferred to centrifuge tubes to be stored at −20° C. for a maximum of 2 weeks before RNA isolation.
RNA was extracted using Nucleospin RNA XS (Machery Nagel) according to the manufacturer's instructions. For cDNA synthesis, total RNA was added to a solution containing buffer with random hexamers and reverse transcriptase enzyme. The PCR was performed using the following parameters: 10 minutes at 25° C., 30 minutes at 48° C., 5 minutes at 95° C. RT-qPCR on the cDNA samples was performed using Taqman Universal PCR Master Mix (Applied Biosystems) and Taqman primers according to the manufacturer's instructions. […] Expression levels were calculated using the comparative cycle method and expressed as fold change to appropriate (background) control. […]

[2] = tested on: Human dermal fibroblasts (HDF); assay: In vitro fibrosis assay, TGFβ-stimulated HDF (qRT-PCR); format: cell-based; conditions: TGFβ 10 ng/mL, 4-32 μM (FIGS. 8C-8F)
Method: as §1
Following 1-9 passages, HDF and HCF were seeded at 0.3×10^6 cells/well in 1 mL cell medium in 12-well plates and incubated overnight at 37° C. in humidified atmosphere of 5% CO2 in air. Next, cells were put on serum starved medium (0.1% FBS) for 8 hours and then stimulated for 24 hours with either PBS, active compound (4-32 μM) or non-active compound (NA1, NA2; 4-32 μM) on top of TGFβ (10 ng/mL, Peprotech, 100-21). […]
RNA was extracted using Nucleospin RNA XS (Machery Nagel) according to the manufacturer's instructions. […] Expression levels were calculated using the comparative cycle method and expressed as fold change to appropriate (background) control. […]

[3] = Metabolic stability, human liver microsomes; format: in vitro ADME
Method: A mixture of 713 μL milliQ water (Millipore, MA, USA), 200 μL 0.5 M phosphate buffer (pH 7.4, BD Diagnostic Systems, MD, USA), 50 μL NADPH regenerating system solution A (BD Biosciences, CA, USA), 10 μL NADPH regenerating system solution B (BD Biosciences, CA, USA) and 2 μL compound (5 mM in DMSO) was prepared and heated for 5 min at 37° C. Twenty-five μL of liver microsomes (0.5 mg protein/mL, Corning B.V. Life Sciences, Amsterdam, Netherlands) was added to the mixture and 20 μL samples were withdrawn at 0, 0.25, 0.5 and 1, 2, 4, 6 and 24 hours. Eighty μL (4×20 μL) of cold acetonitrile (Sigma-Aldrich, MO, USA) was added to the samples on ice for 10 min. Afterwards, the mixtures were centrifuged at 13,000 rpm for 5 min at 4° C. Seventy-five μL of an acetonitrile/water (10/90) mixture was added to 25 μL supernatant and the obtained samples were analyzed by LC-MS/MS (Waters Acquity H-class UPLC system with ion trap mass spectrometer, Bruker Daltonics Esquire 3000 plus, and Agilent 1100 Series LC system) in triplicate.

C57BL/6N male mice = assay: In vivo anti-fibrotic capacity, Angiotensin II left ventricular remodeling mouse model
Method: Left ventricular (LV) remodeling was induced in 13-week old C57BL/6N male mice by Angiotensin II (AngII, 1000 ng/kg/min, Sigma Aldrich) using a subcutaneous micro-osmotic pump (model 1004, Alzet). Next to AngII, the mice were also given a second s.c. micro-osmotic pump filled with selected hit compound (83 μg/kg/h) or vehicle. Control groups (sham, compound alone, AngII alone) were also implemented. After 4 weeks of treatment, mice were euthanized and hearts were collected.
Hearts were fixed and embedded in paraffin. The LV interstitial collagen fraction was determined in Masson trichrome blue-stained areas. Cardiomyocyte outlines were stained with antibodies specific for laminin (NB300-144; Novus Biologicals), and cardiomyocyte cross-sectional area was determined by averaging 20 representative cardiomyocytes per section per animal (5 sections/animal). Data was skewed, therefore log transformation was performed. Endothelial cells were stained with isolectin B4 (Vector Laboratories) and capillary density was determined as the number of capillaries per 100 cardiomyocytes by averaging the number of capillaries per cardiomyocytes on 5 images per animal. Capillaries and cardiomyocytes were counted (by an investigator blinded to the treatment protocol) per section per animal (5 sections/animal). Capillaries were normalized to tissue area to calculate capillary density.

C57BL/6N mice = assay: In vivo acute toxicity study; conditions: accumulative i.p. doses, hematoxylin and eosin staining (FIG. 15)
Method: An acute toxicity study was performed on C57BL/6N mice using accumulative doses of compound 1 (n=3) or vehicle (n=3, 10% DMSO). On day 1, mice received 0.4 mg/kg cpd 1, day 2 1.2 mg/kg, day 3 4 mg/kg, day 4 4 mg/kg by intraperitoneal injection. At day 4, 1 hour after injection of 4 mg/kg, the mice were sacrificed and the hearts, liver, and kidney excised. The histology of the organs was evaluated by hematoxylin and eosin staining.

## CC(Sc1nc2ccccc2c(=O)n1C1CCCC1)c1nc2ccccc2n1C(F)F (centres unmarked) [Compound 7]
[1]
  col3a1 levels in comparison with TGFβ control: significantly decreases col3a1 levels
[2]
  antifibrotic effect (col1a1 and col3a1 levels): significant dose-dependent antifibrotic effects

## Cc1sc2nc(SC(C)C(=O)Nc3sccc3C(N)=O)n(CC(C)C)c(=O)c2c1C (centres unmarked) [Compound 6]
[3]; human liver microsomes
  t1/2 human: 17 min
[3]; human, liver microsomes, pH 7.4, human liver microsomes, read-out: t1/2 human
  half-life at 10 µM: 17 to 18 min
[2]
  antifibrotic effect (col1a1 and col3a1 levels): significant dose-dependent antifibrotic effects

## O=C(NC1CC1)C(Sc1nc2ccccc2c(=O)n1C1CCCC1)c1ccccc1 (centres unmarked) [Compound 1]
[1]
  col1a1 levels in comparison with TGFβ control: significantly decrease col1a1 levels
C57BL/6N male mice; 4 weeks (FIG. 14D)
  capillary density compared to vehicle: significantly increased capillary density
C57BL/6N male mice; AngII 1000 ng/kg/min + compound 83 μg/kg/h s.c. pump, 4 weeks (FIG. 14A)
  myocardial fibrosis compared to angiotensin II/vehicle: significantly attenuated myocardial fibrosis
C57BL/6N male mice; add-on to angiotensin II, 4 weeks (FIG. 14B)
  HW:BW ratio: no effect
C57BL/6N male mice; add-on to angiotensin II, 4 weeks (FIG. 14C)
  cardiomyocyte cross sectional area compared to angiotensin II/vehicle: did increase
C57BL/6N mice
  histology of heart, liver and kidney (treated vs control group): no significant difference in structures of cardiac, liver and renal cells
